Experimental data: the NIST ThermoML archive (doi:10.1016/j.jct.2016.12.007)
± gives the expanded uncertainty stated by the source.

How the values were obtained:
[1] = wn = mass fraction of the nth substance listed; conditions: 101.3 kPa, Liquid, Vibrating tube method
[2] = refractive index (Na D-line) (dimensionless); wn = mass fraction of the nth substance listed; conditions: 101.3 kPa, Liquid, Standard Abbe refractometry

SMILES | mass density ([1]; 288.15 K, w1 = 0.4695) | mass density ([1]; 298.15 K, w1 = 0.4841) | mass density ([1]; 308.15 K, w1 = 0.5041) | refractive index ([2]; 288.15 K, w1 = 0.4695) | refractive index ([2]; 298.15 K, w1 = 0.4841) | refractive index ([2]; 308.15 K, w1 = 0.5041) | mass density ([1]; 288.15 K, w1 = 0.2622) | mass density ([1]; 298.15 K, w1 = 0.2625) | mass density ([1]; 308.15 K, w1 = 0.2666) | refractive index ([2]; 288.15 K, w1 = 0.2622) | refractive index ([2]; 298.15 K, w1 = 0.2625) | refractive index ([2]; 308.15 K, w1 = 0.2666)
[Cl-].[Rb+] [rubidium chloride] + O | 1480.4 ± 4.3 kg/m3 | 1500.3 ± 4.3 kg/m3 | 1517.5 ± 4.3 kg/m3 | 1.3874 ± 0.0005 | 1.3883 ± 0.0005 | 1.3894 ± 0.0005 |  |  |  |  |  | 
[Cl-].[Na+] [sodium chloride] + O |  |  |  |  |  |  | 1201 ± 4.2 kg/m3 | 1197.8 ± 4.2 kg/m3 | 1193.6 ± 4.2 kg/m3 | 1.3811 ± 0.0005 | 1.3795 ± 0.0005 | 1.3781 ± 0.0005
